Assay results as given in patent US5714496A, “Quinuclidine derivatives as squalene synthase inhibitors” (Zeneca Limited, priority 1992, dated 1998).

Assays:
[1] = test system: squalene synthase (rat liver microsomal protein); assay: Inhibition of squalene synthase (squalene formation from tritiated farnesyl pyrophosphate); format: biochemical; settings: at 2.5 μM; rat liver microsomes, 20 μM [3H]-farnesyl pyrophosphate, 15 min, 37° C.
Protocol: (a) Inhibition of Squalene synthase
In this test, the ability of a compound to prevent the formation of squalene from a radioactive substrate (tritiated farnesyl pyrophosphate) is assessed.
The test compound is incubated at a concentration of 25 micromolar in 200 μl of a buffered solution containing potassium phosphate (50 mM), MgCl2 (4.95 mM), KF (9.9 mM), NADPH (0.9 mM) and rat liver microsomal protein (20 μg). Rat liver microsomes are prepared by the method described in published European Patent Application No. 324,421 and stored in liquid nitrogen prior to assay. Assay vials are kept at 37° C. throughout the incubation.
The reaction is started with the addition of the substrate (1-[^3 H]-farnesyl pyrophosphate), final concentration 20 μM, and stopped after 15 minutes reaction time with the addition of 50 μl of 4% KOH. The reaction products are separated from unreacted substrate after application to a C-18 octadecyl 1 ccBond column (Analytichem Int product No. 617101). An aqueous fraction is eluted with 250 μl of 0.1M KOH. Squalene is then eluted with 1.0 ml 10% ethylacetate in hexane and radioactivity determined. The difference in radioactivity in the presence and absence of the test compound is used to determine the level of inhibition. […] The IC50 can then be determined from a plot of percentage inhibition against concentration of test compound.

[2] = test system: de novo hepatic cholesterol synthesis from 14C-acetate; assay: Acute rat cholesterol synthesis assay; format: in vivo; settings: plasma cholesterol specific radioactivity after ip [2-14C]-acetate given 1 hour after the compound
Protocol: (b) Acute rat cholesterol synthesis assay.
This is an acute in vivo test in the rat to measure de novo hepatic cholesterol synthesis from exogenously administered ^14 C-acetate.
Female rats (35-55 g) are housed in reverse lighting conditions (red light from 0200 h-1400 h) for a period of about 2 weeks prior to test. Animals are allowed free access to chow and drinking water throughout this period. At test, animals should weigh 125-150 g.
Test compounds may be administered by oral gavage, dissolved or suspended in 0.5% polysorbate, or by ip or iv dosing. Control animals receive vehicle alone. After 1 hour the rats are injected ip with 25 μCi [2-^14 C]-acetate (NEN DUPONT, specific activity, 45-60 mCi/mmol NEC-085H, or AMERSHAM specific activity, 50-60 mCi/mmol CFA 14) in a volume of 0.25 ml saline (100 μCi/ml). After a further hour, rats are terminally anaesthetised with halothane and a blood sample obtained from the abdominal vena cava.
1 ml of plasma is lyophilised and then saponified in 2 ml ethanolic KOH (1 part 33% KOH, 9 parts ethanol) at 75° C. for 2 hours. After addition of an equal quantity of water, non-saponifiable lipids are extracted with two 5 ml volumes of hexane. The hexane extracts are evaporated to dryness and the residues dissolved in ethanol to determine cholesterol specific radioactivity. ED50 values can be determined in the standard way.

OC1(C#Cc2ccc(-c3ccccn3)cc2)CN2CCC1CC2 (centres unmarked) [Example 2, 3-[2-(4-[2-pyridyl]phenyl)ethynyl]-3-hydroxyquinuclidine]
inhibition of squalene synthase [1]: about 98%
ED50 [2]: 8 mg/kg
